According to ChEMBL document CHEMBL1128754, “The SAR of 6-(N-alkyl-N-acyl)-2-propyl-3-[(2-tetrazol-5-yl)biphen-4-yl)methyl]-quinazolinones as balanced affinity antagonists of the human AT1 and AT2 receptors” (Bioorg Med Chem Lett, 1995):
Positions count from the first letter of the chain named.

Assays:
[1] = target: T1, Type-1 angiotensin II receptor (Oryctolagus cuniculus, UniProt P34976); experiment: biochemical
T1 sequence (P34976 whole entry): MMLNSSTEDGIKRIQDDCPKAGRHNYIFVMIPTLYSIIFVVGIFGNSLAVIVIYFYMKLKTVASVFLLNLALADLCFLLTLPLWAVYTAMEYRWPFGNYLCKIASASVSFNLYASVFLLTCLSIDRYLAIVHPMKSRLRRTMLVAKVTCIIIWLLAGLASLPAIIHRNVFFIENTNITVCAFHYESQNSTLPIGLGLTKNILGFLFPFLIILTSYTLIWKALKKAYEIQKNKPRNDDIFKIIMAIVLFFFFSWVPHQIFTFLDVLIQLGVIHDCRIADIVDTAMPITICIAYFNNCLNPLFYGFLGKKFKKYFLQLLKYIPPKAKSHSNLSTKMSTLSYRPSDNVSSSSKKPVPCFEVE
Description: Binding affinity against AT1 receptor in rabbit aorta

physchem = settings: octanol/water
Description: Partition coefficient (logP)

[2] = target: T2, Type-1 angiotensin II receptor (Homo sapiens, UniProt P30556); experiment: biochemical
T2 sequence (P30556 whole entry): T1 sequence (P34976 whole entry) with M2I, A49V, V254I, V270I, H272R, K311R, S349T, V353A
Description: Binding affinity against AT1 receptor in human adrenal tissue

Rattus norvegicus [3] = organism: Rattus norvegicus; settings: dose 1 mg/kg; route oral
Rattus norvegicus [4] = organism: Rattus norvegicus; settings: dose 1 mg/kg; route intravenous
[5] = target: T3, Angiotensin II receptor (Homo sapiens) (UniProt P30556+P50052); experiment: Ratio of receptor binding affinity AT2/AT1 in human adrenal tissue in th+e presence of 2 mg/ml bovine serum albumin; format: protein assay
T3 sequence (P30556 whole entry, looked up): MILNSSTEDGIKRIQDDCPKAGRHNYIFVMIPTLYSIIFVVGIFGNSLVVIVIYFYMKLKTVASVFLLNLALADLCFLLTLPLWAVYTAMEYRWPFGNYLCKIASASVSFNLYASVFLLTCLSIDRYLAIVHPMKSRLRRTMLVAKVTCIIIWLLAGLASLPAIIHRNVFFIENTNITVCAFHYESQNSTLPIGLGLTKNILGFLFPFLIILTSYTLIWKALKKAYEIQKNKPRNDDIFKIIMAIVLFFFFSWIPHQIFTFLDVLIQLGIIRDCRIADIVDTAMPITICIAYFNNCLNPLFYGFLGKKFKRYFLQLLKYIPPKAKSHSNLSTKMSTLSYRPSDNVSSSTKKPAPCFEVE
T3 sequence (P50052 whole entry, looked up): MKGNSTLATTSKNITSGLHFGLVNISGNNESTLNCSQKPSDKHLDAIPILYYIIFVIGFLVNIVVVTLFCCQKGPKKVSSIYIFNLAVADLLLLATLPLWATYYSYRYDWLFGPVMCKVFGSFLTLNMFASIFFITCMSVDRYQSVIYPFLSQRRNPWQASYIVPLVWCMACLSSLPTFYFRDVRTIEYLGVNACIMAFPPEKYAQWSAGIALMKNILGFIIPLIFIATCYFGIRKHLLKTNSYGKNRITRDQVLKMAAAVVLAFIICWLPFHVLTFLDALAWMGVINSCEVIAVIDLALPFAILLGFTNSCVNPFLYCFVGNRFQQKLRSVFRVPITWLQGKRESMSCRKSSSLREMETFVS

[6] = target: Angiotensin II receptor (Rattus norvegicus) (UniProt P29089+P25095+P35351); experiment: Ratio of receptor binding affinity AT2/AT1 in rat adrenal tissue
[7] = target: T4, Angiotensin II receptor (AT-1) type-1 (Rattus norvegicus, UniProt P29089+P25095); experiment: Binding affinity against AT1 receptor in rat adrenal tissue; format: tissue-based
T4 sequence (P29089 whole entry): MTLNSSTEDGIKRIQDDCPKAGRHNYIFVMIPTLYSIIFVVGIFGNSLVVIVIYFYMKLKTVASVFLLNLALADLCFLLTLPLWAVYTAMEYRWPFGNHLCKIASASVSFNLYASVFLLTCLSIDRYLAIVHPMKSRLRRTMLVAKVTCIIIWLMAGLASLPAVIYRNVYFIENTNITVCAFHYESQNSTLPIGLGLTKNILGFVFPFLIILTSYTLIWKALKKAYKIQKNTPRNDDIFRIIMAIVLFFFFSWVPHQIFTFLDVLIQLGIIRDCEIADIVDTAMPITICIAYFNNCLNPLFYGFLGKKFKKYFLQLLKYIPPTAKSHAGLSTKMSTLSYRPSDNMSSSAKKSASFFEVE
T4 sequence (P25095 whole entry): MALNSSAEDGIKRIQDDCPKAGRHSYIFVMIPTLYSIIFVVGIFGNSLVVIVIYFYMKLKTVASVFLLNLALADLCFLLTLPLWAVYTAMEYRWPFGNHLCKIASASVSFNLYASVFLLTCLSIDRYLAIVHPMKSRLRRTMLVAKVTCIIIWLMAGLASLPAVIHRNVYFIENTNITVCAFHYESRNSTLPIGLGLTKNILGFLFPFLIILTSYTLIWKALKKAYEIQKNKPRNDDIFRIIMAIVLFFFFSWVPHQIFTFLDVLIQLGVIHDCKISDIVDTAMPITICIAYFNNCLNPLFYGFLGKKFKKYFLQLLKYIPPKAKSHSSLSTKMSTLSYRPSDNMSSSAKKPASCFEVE

[8] = Bioavailability in dog (dose of 1.0 mg/kg i.v.) 0.5 hr; format: ADME, organism-based, Canis lupus familiaris; settings: in vivo, iv
[9] = target: T3, Angiotensin II receptor (Homo sapiens); experiment: Ratio of receptor binding affinity AT2/AT1 in human adrenal tissue in the presence of 2 mg/ml bovine serum albumin; format: protein assay
[10] = Ratio of receptor binding affinity of compound against rat midbrain tissue (AT2) to that of rabbit aorta (AT1); format: tissue-based

Row | Compound | IC50 [1] [nM] | logP (physchem) | Duration (Rattus norvegicus [4]) [h] | also measured
1 | Cn1nnnc1-c1ccccc1-c1ccc(Cn2cnc3ccc(N(C(=O)c4ccccc4)c4ccccc4)cc3c2=O)cc1 | 2.5 | – | – | –
2 | CCCCS(=O)(=O)N(Cc1ccccc1)c1ccc2ncn(Cc3ccc(-c4ccccc4-c4nnnn4C)cc3)c(=O)c2c1 | 23 | – | – | –
3 | CCCCC(=O)N(Cc1ccccc1)c1ccc2ncn(Cc3ccc(-c4ccccc4-c4nnnn4C)cc3)c(=O)c2c1 | 2.4 | 5.4 | >3 | IC50 [2]: 5.7 nM; Duration (Rattus norvegicus [3]): >3 h; Ratio [5]: 0.1
4 | CC(=O)OCCCCN(C(=O)c1ccccc1)c1ccc2ncn(Cc3ccc(-c4ccccc4-c4nnnn4C)cc3)c(=O)c2c1 | 1.3 | 3.3 | – | –
5 | CCCCCN(C(=O)c1ccncc1)c1ccc2ncn(Cc3ccc(-c4ccccc4-c4nnnn4C)cc3)c(=O)c2c1 | 2.8 | 4.3 | >3 | –
6 | CCCCCN(C(=O)c1ccc(F)cc1)c1ccc2ncn(Cc3ccc(-c4ccccc4-c4nnnn4C)cc3)c(=O)c2c1 | 1.7 | 5.2 | – | –
7 | Cn1nnnc1-c1ccccc1-c1ccc(Cn2cnc3ccc(N(Cc4ccccc4)C(=O)c4ccncc4)cc3c2=O)cc1 | 3.4 | 3.7 | – | –
8 | CCOCCN(C(=O)c1ccccc1)c1ccc2ncn(Cc3ccc(-c4ccccc4-c4nnnn4C)cc3)c(=O)c2c1 | 1.6 | 3.9 | – | –
9 | Cn1nnnc1-c1ccccc1-c1ccc(Cn2cnc3ccc(N(Cc4ccc(O)cc4)C(=O)c4ccccc4)cc3c2=O)cc1 | 4.9 | 3.6 | – | Ratio [6]: 1.5; IC50 [2]: 6 nM; IC50 [7]: 0.5 nM; Ratio [5]: 0.8
10 | CCCCN(C(=O)c1ccc(O)cc1)c1ccc2ncn(Cc3ccc(-c4ccccc4-c4nnnn4C)cc3)c(=O)c2c1 | 1.2 | 4.2 | >3 | Ratio [6]: 17; IC50 [2]: 4 nM; IC50 [7]: 0.3 nM; Ratio [5]: 6.8
11 | Cn1nnnc1-c1ccccc1-c1ccc(Cn2cnc3ccc(N(Cc4ccncc4)C(=O)c4ccccc4)cc3c2=O)cc1 | 5.5 | 3.4 | – | –
12 | CCCCCN(Cc1ccccc1)c1ccc2ncn(Cc3ccc(-c4ccccc4-c4nnnn4C)cc3)c(=O)c2c1 | 20 | – | – | –
13 | COC(=O)c1ccc(CN(C(=O)c2ccccc2)c2ccc3ncn(Cc4ccc(-c5ccccc5-c5nnnn5C)cc4)c(=O)c3c2)cc1 | 3.9 | 4.4 | <3 | Ratio [6]: 1.9; IC50 [2]: 9.6 nM; IC50 [7]: 0.8 nM; Ratio [5]: 1.7
14 | CCCCCN(C(=O)c1ccc(OCc2ccccc2)cc1)c1ccc2ncn(Cc3ccc(-c4ccccc4-c4nnnn4C)cc3)c(=O)c2c1 | 8.4 | > 5.7 | – | –
15 | CCCCCN(C(=O)c1ccc(O)cc1)c1ccc2ncn(Cc3ccc(-c4ccccc4-c4nnnn4C)cc3)c(=O)c2c1 | 0.9 | 4.7 | >3 | Ratio [6]: 3.1; IC50 [2]: 4.9 nM; IC50 [7]: 0.5 nM; Ratio [5]: 5.8
16 | CCCCCN(C(=O)c1cccnc1)c1ccc2ncn(Cc3ccc(-c4ccccc4-c4nnnn4C)cc3)c(=O)c2c1 | 4.5 | 4.3 | <3 | –
17 | CCCCCN(C(=O)c1ccccc1)c1ccc2ncn(Cc3ccc(-c4ccccc4-c4nnnn4C)cc3)c(=O)c2c1 | 1.7 | 5.1 | >3 | IC50 [2]: 6.9 nM; bioavailability [8]: 73%; Duration (Rattus norvegicus [3]): >3 h; Ratio [5]: 1
18 | Cn1nnnc1-c1ccccc1-c1ccc(Cn2cnc3ccc(N(Cc4ccccc4)C(=O)c4cccnc4)cc3c2=O)cc1 | 11 | 3.7 | – | –
19 | CCCCN(C(=O)c1ccc(OP(=O)([O-])[O-])cc1)c1ccc2ncn(Cc3ccc(-c4ccccc4-c4nnnn4C)cc3)c(=O)c2c1.[Na+].[Na+] | 2.2 | 2.9 | >3 | Ratio [6]: 5.4; IC50 [2]: 21.4 nM; IC50 [7]: 3.9 nM; Ratio [9]: 10.9; Duration (Rattus norvegicus [3]): <3 h; Ratio [10]: 1.9
20 | Cn1nnnc1-c1ccccc1-c1ccc(Cn2cnc3ccc(N(Cc4ccccc4)C(=O)c4ccccn4)cc3c2=O)cc1 | 9.3 | 3.8 | – | –
21 | CCCCN(C(=O)c1ccc(F)cc1)c1ccc2ncn(Cc3ccc(-c4ccccc4-c4nnnn4C)cc3)c(=O)c2c1 | 2.3 | 4.7 | – | –

Further compounds by falling IC50 [1], results first:

Row | IC50 [1] [nM] | logP (physchem) | Compound | Duration (Rattus norvegicus [4]) [h] | also measured
22 | 21 | 4.3 | CCCCCN(C(=O)c1ccc([S+](C)[O-])cc1)c1ccc2ncn(Cc3ccc(-c4ccccc4-c4nnnn4C)cc3)c(=O)c2c1 (stereo not given) | <3 | –
23 | 18.5 | – | Cn1nnnc1-c1ccccc1-c1ccc(Cn2cnc3ccc(N(CC(=O)c4ccco4)C(=O)c4ccccc4)cc3c2=O)cc1 | – | –
24 | 9.7 | 2.7 | Cn1nnnc1-c1ccccc1-c1ccc(Cn2cnc3ccc(N(Cc4ccccn4)C(=O)c4ccncc4)cc3c2=O)cc1 | <3 | Ratio [6]: 1.6; IC50 [2]: 4.4 nM; IC50 [7]: 2.9 nM; Duration (Rattus norvegicus [3]): <3 h; Ratio [5]: 2.3
25 | 9.5 | 2.3 | Cn1nnnc1-c1ccccc1-c1ccc(Cn2cnc3ccc(N(CCCC(=O)O)C(=O)c4ccccc4)cc3c2=O)cc1 | – | –
26 | 7.5 | 3.2 | Cn1nnnc1-c1ccccc1-c1ccc(Cn2cnc3ccc(N(Cc4ccccn4)C(=O)c4ccco4)cc3c2=O)cc1 | >3 | Ratio [6]: 0.3; IC50 [2]: 10.6 nM; IC50 [7]: 2.1 nM; Duration (Rattus norvegicus [3]): <3 h; Ratio [5]: 0.3
27 | 7.2 | 4.4 | CCCCCN(C(=O)c1ccc(S(C)(=O)=O)cc1)c1ccc2ncn(Cc3ccc(-c4ccccc4-c4nnnn4C)cc3)c(=O)c2c1 | – | –
28 | 6.7 | 3.6 | Cn1nnnc1-c1ccccc1-c1ccc(Cn2cnc3ccc(N(Cc4ccccn4)C(=O)c4ccccc4)cc3c2=O)cc1 | – | Ratio [6]: 0.5; IC50 [2]: 5.09 nM; IC50 [7]: 1.3 nM; Ratio [5]: 0.2
29 | 6.5 | 2.4 | Cn1nnnc1-c1ccccc1-c1ccc(Cn2cnc3ccc(N(Cc4ccc(C(=O)O)cc4)C(=O)c4ccccc4)cc3c2=O)cc1 | – | –
30 | 6.4 | – | CCCCCN(C(=O)c1ccc(SC)cc1)c1ccc2ncn(Cc3ccc(-c4ccccc4-c4nnnn4C)cc3)c(=O)c2c1 | – | –
31 | 4.6 | 4.5 | Cn1nnnc1-c1ccccc1-c1ccc(Cn2cnc3ccc(N(Cc4ccccc4)C(=O)c4ccccc4)cc3c2=O)cc1 | <3 | Ratio [6]: 0.1; IC50 [7]: 0.6 nM
32 | 3.2 | – | CCCCCN(C(=O)c1ccco1)c1ccc2ncn(Cc3ccc(-c4ccccc4-c4nnnn4C)cc3)c(=O)c2c1 | <3 | –
33 | 2.6 | – | Cn1nnnc1-c1ccccc1-c1ccc(Cn2cnc3ccc(N(CCCCO)C(=O)c4ccccc4)cc3c2=O)cc1 | – | –
34 | 2.3 | 4.1 | CCOC(=O)CCCN(C(=O)c1ccccc1)c1ccc2ncn(Cc3ccc(-c4ccccc4-c4nnnn4C)cc3)c(=O)c2c1 | – | –
35 | 2.2 | 3.6 | COCCOCCN(C(=O)c1ccccc1)c1ccc2ncn(Cc3ccc(-c4ccccc4-c4nnnn4C)cc3)c(=O)c2c1 | – | –
36 | 1.9 | 4.3 | CCCN(C(=O)c1ccc(F)cc1)c1ccc2ncn(Cc3ccc(-c4ccccc4-c4nnnn4C)cc3)c(=O)c2c1 | – | –
37 | 1.1 | 5 | CCCCCN(C(=O)c1ccccc1OC)c1ccc2ncn(Cc3ccc(-c4ccccc4-c4nnnn4C)cc3)c(=O)c2c1 | – | –
